Experiment [1] deals with dispersed schistosome muscle fibres.
Experiment [2] shares this test system. The conditions noted are these: ref Day et al., 1997; cited from earlier work.

For GFVRIamide, in experiment [1], the “activity in isolated muscle cell assays” value is “lacked measurable activity”. YIRFamide: in experiment [2], the “effect on individual / dispersed schistosome muscle cells (fibres)” value is “potent myoexcitatory effect”. Take YIRF-OH: the “effect on individual / dispersed schistosome muscle cells (fibres)” value in experiment [2] is on record as “lack of effect”.

The values above are taken from PMC3118037 (International journal for parasitology, 2011).
